# Test results from patent US12090166B2, “Pharmaceutical composition for preventing or treating dentin-dental pulp disease or periodontal disease, containing LPAR2 inhibitor” (PUSAN NATIONAL UNIVERSITY INDUSTRY-UNIVERSITY COOPERATION …, priority 2018, dated 2024).
# Entries after “also recorded” stand apart in the source; their conditions may differ.
# Key:
# [1] = system: human-derived dental pulp stem cells; assay: Real-time PCR analysis of differentiation genes; format: cell-based; settings: 1 μM once every 3 days, 7 days in bone differentiation medium
# Procedure: As in Example 2-2, human-derived dental pulp stem cells were differentiated for 7 days, 14 days and 21 days in a bone differentiation induction culture medium. Beck 35 was added to the bone differentiation medium at a concentration of 1 μM once every 3 days to differentiate for a week. Those maintained with the human-derived dental pulp stem cells, induced differentiation for 7 days, 14 days and 21 days with bone differentiation medium, and induced differentiation for 7 days in bone differentiation medium containing Beck 35 was used to isolate total RNA with Trisure (Bioline, UK) and reverse transcription to cDNA was performed using HelixCript™ Thermo Reverse Transcriptase (NanoHelix, Korea, Daejeon, Korea). The synthesized cDNA was performed using the primers of Table 1 and Power SYBR Green PCR Master Mix. The data analysis was determined using the delta Ct method.
# [2] = system: exposed pulp cavity of mouse molars; assay: Pulp cavity exposure animal model (H&E, MTC, micro-CT, immunohistochemistry); format: in vivo
# Procedure: (§1) After anesthesia is performed by administering intraperitoneally Zoletil (Virbac, Carros, France) and Rompun (Bayer, Berlin, Germany), which are anesthetic inducing agents according to the weight, an experiment was conducted to expose the pulp cavity for the maxillary right first molars. To confirm the change in gene expression, an experiment was conducted on the developing 14th day pregnant embryo. ICR-based female mice whose pregnancy was confirmed were sacrificed in the morning of the 14th day after pregnancy, and then embryos were obtained and the tooth germ of the lower jaw was finely dissected under a stereoscopic microscope, and the tooth germ tissue was placed on the lid of a 35 mm diameter Petri dish for experimentation together with the culture solution and cultured in a 5% carbon dioxide incubator at 37° C. for 24 hours with or without Beck 35 drug administration.
# In order to prepare tissue sections, mice were sacrificed after a certain experimental period in the experimental group and the control group, fixed in 4% paraformaldehyde, washed with phosphate buffer solution, and demineralized in 0.1 M EDTA chelate solution. Demineralization proceeded for 4 weeks, and after demineralization, it was embedded in wax, cut to a thickness of 7 micrometers, and smeared on a glass slide to perform conventional hematoxylin and eosin staining.
# MTC staining was performed to confirm the synthesis of collagen protein and formation of mineralized tissue. After staining the nucleus with hematoxylin for the tissue on the glass slide produced through the normal tissue sectioning process and if the entire tissue is stained with a mixed dyeing solution designed to perform cytoplasmic staining with biebrich scarlet and muscle fibers staining with acid fuchsin, all of collagen fibers, muscle fibers and cytoplasm can be observed by staining red.
# Microcomputerized tomography was performed to confirm the hard tissue regenerated by the drug. The lower jaw tissue fixed in 4% paraformaldehyde was observed using Skyscan1272 (Bruker, Kontich, Belgium), and 2 micrometers pixels were photographed at 4904×3280 resolution for the entire 360 degree, and the image was reconstructed in 3D with a data viewer and then the degree of hard tissue formation was objectively analyzed by analyzing with the CTAn (Bruker) program.
# While observing the oral cavity of anesthetized mice under a stereoscopic microscope, a pulp cavity exposure experiment was performed on the upper right first molar, and the left upper first molar was used as a untreated control. While observing with a stereoscopic microscope, using a round burr having 0.6 mm diameter connected to a high-speed handpiece, the enamel and dentin was exposed to be perpendicular to the occlusal surface, and when necessary, water was sprayed to minimize tissue damage. Afterwards, the Beck 35 drug was mounted on Pluronic F127 and delivered to the exposed pulp cavity. Only Pluronic F127 was delivered to confirm as a control. After the delivery of the Beck 35 drug to the pulp cavity, the doubly exposed pulp cavity was covered with Dycal (Dentsply Caulk, Milford, DE) and a […] composite resin. Thereafter, on the 3rd, 5th and 42nd days, the changes were confirmed by histological and microcomputed tomography techniques.
# To confirm the expression of the protein, the expression pattern of NESTIN, a protein specific for odontoblasts, was confirmed by immunohistochemistry using tissue sections from the control and treatment groups. The expression of the protein was confirmed based on the antigen-antibody reaction, and the positive reaction of the protein was confirmed as brown with 3,3′-diaminobenzidine.
# [3] = system: human-derived dental pulp stem cells; assay: Extracellular matrix calcification by Alizarin Red S staining during bone differentiation; format: cell-based; settings: for calcification (Alizarin Red S staining): 0, 1, 5 and 1.0 μM/ml in bone differentiation induction medium
# Procedure: Human-derived dental pulp stem cells (4×10^5 cells/ml) were cultured in Miltenyi Stem MACS MSC Expansion Media Kit XF medium containing 100 μg/ml streptomycin and 100 μg/ml penicillin, followed by culturing in bone differentiation induction medium (10% fetal bovine serum, […] dexamethasone, 10 mM β-glycerophosphate, and 50 mM ascorbic acid). Beck 35 (LPAR2 inhibitor) and LPA were added to the bone differentiation induction medium at various concentrations (0, 1, 5 and 1.0 μM/ml). […] In order to quantify the degree of staining, the absorbance was measured at 562 nm after dissolving in 10% (WN) cetylpyridinium chloride and 10 mM sodium phosphate (pH 7.0) solution.
# Human-derived dental pulp stem cells (4×10^5 cells/ml) were cultured in Miltenyi Stem MACS MSC Expansion Media Kit XF medium containing 100 μg/ml streptomycin and 100 μg/ml penicillin, and differentiation was induced for 14 days by changing to the bone differentiation induction medium. To the bone differentiation induction medium, RP10-83, an agonist of LPAR2 and H2L5186303, an antagonist of LPAR2 were added at various concentrations (0, 1, and 10 μM/ml). The cells in which bone differentiation was induced were washed twice with PBS, fixed with 70% ethanol at 4° C. for 1 hour, stained with 40 mM Alizarin Red S (pH 4.2, Sigma Co.) solution for 10 minutes, and then washed with distilled water sufficiently. In order to quantify the degree of staining, the absorbance was measured at 562 nm after dissolving in a 10% (WN) cetylpyridinium chloride and 10 mM sodium phosphate (pH 7.0) solution.
# Human-derived dental pulp stem cells (4×10^5 cells/ml) were cultured in a growth medium without antibiotics. 50 nM of LPAR2 si-RNA was transfected using jetPRIME (Polyplus Transfection) according to the manufacturers protocol. As a control, non-targeting siRNA (SEQ ID NO: 1: […]) was transfected. The differentiation of the cells was induced for 7 days after changing to bone differentiation induction medium. […]
# tooth germ mesenchyme = assay: Real-time PCR analysis of in vitro cultured tooth germ mesenchyme; format: cell-based, mouse; settings: 24 hours, 5 μM, vs control group
# Procedure: as §1, with “Experimental animals were carried out using mouse ICR-based male 8 week-old mice. After” for “After”
# In order to confirm the change in gene expression by Beck 35 drugs, in vitro culture was performed by microdissecting the tooth germ at the 14th day of the embryonic period, and the group treated with the drug for 24 hours was set as the experimental group, and the untreated tissue was set as the control group, and changes in gene expression were confirmed by real-time PCR analysis. After RNA was obtained from the cultured tissue, the first strand cDNA was synthesized and the expression level was confirmed by real-time PCR for genes known to be important for dentin formation until now.
# [4] = system: human-derived dental pulp stem cells; assay: Electron microscope analysis after bone differentiation; format: cell-based; settings: bone differentiation medium with vs without Beck 35
# Procedure: As in Example 2-2, human-derived dental pulp stem cells were cultured in a culture medium for inducing bone differentiation with or without Beck 35, an inhibitor of LPAR2, to induce bone differentiation, and then observed by an electron microscope.
# [5] = system: dental papilla mesenchyme; assay: Real-time PCR analysis of in vitro cultured dental papilla mesenchyme; format: cell-based, mouse; settings: 24 hours, vs control group
# Procedure: as §1, with “Experimental animals were carried out using mouse ICR-based male 8 week-old mice. After” for “After”
# In order to confirm the change in gene expression by Beck 35 drugs, in vitro culture was performed by microdissecting the tooth germ at the 14th day of the embryonic period, and the group treated with the drug for 24 hours was set as the experimental group, and the untreated tissue was set as the control group, and changes in gene expression were confirmed by real-time PCR analysis. […]
# [6] = system: human-derived dental pulp stem cells; assay: Cell viability measurement (MTT method); format: cell-based; settings: 24 hours; for proliferation of human-derived dental pulp stem cells (cell viability, MTT): expansion medium, vs control
# Procedure: Cell viability measurement was evaluated by the 3-(4,5-dimethylthiazol-2-yl)-2,5-diphenyl-2H-tetrazolium bromide (MTT) method. Human-derived dental pulp stem cells were coated with 0.2% gelatin one day before culture. On the day of incubation, 0.2% gelatin was removed from the 48-well plate and washed once with PBS. In 48-well plates, human-derived dental pulp stem cells (4×10^5 cells/ml) were cultured in Miltenyi Stem MACS MSC Expansion Media Kit XF medium containing 100 μg/ml streptomycin and 100 μg/ml penicillin. Beck 35 was evaluated at various concentrations (0, 0.1, 1 and 1.0 μg/ml) for 24 hours at 37° C. in an atmosphere of 5% CO2 and 95% humidity. Then, the cells were incubated with 0.5 mg/ml MTT (SIGMA, USA) for 3 hours, and the reaction was stopped by adding dimethyl sulfoxide (DMSO, JUNSEL, Japan). Results were obtained at 560 nm using an ELISA reader. The cell viability of the control cells was used as a 100% control value.
# In addition, human-derived dental pulp stem cells were cultured in bone differentiation inducing medium (10% fetal bovine serum, […] dexamethasone, 10 mM β-glycerophosphate and 50 mM ascorbic acid) for 24 hours to induce the differentiation and various concentrations (1, 5 and 1.0 μM/ml) of Beck 35 were treated during differentiation.
# [7] = after 3 and 5 days, vs control group
# [8] = after 42 days, vs control group
molecule,measurement,setting,value
Cc1csc2c(N[C@@H](C)CN3CCN(S(=O)(=O)c4ccc(Cl)c(Cl)c4)CC3)ncnc12 [Beck 35],expression level of DMP-1 (dentin matrix protein 1),[1],Increased
same,expression level of DSPP (dentin sialophosphoprotein),[1],Increased
same,expression level of Runx2 (runt-related transcription factor 2),[1],Increased
same,expression level of osteopontin,[1],Increased
same,blood vessel distribution (MTC staining),[2]; 3 and 5 days later,same blood vessel distribution as the HE staining result
same,number of cells in which the inflammatory cells and the nucleus were thickly condensed (MTC staining),[2]; 3 and 5 days later,small
same,dentin bridge formation (micro-CT),"[2]; 42 days after pulp cavity exposure, vs control group",dentin bridge was formed; also recorded: perfect dentin bridge was regenerated
same,"dentin regeneration, morphological","[2]; Beck 35 5 μM in exposed pulp cavity, maxillary molar of 8-week-old B6 mice",perfectly formed dentin bridge
same,NESTIN expression in pulp cavity periphery (immunohistochemistry),[2]; [7],more positive reactions
same,RUNX2 expression in pulp cavity periphery (immunohistochemistry),[2]; [7],more positive reactions
same,blood vessels in pulp cavity (H&E),[2]; [7],more tissues were observed as blood vessels
same,staining of cell nuclei in the pulp cavity (H&E),[2]; [7],stained lighter than the control group
same,formation of calcified dentin bridge (MTC staining),[2]; [8],formation of calcified dentin bridge was confirmed
same,formation of dentin bridge (H&E),[2]; [8],formation of dentin bridge was clearly observed
same,new collagen fibers in pulp cavity (HE and MTC staining),[2]; after treating exposed pulp cavity,new collagen fibers seen as pulp cavity internal tissue were confirmed
same,number of inflammatory cells (H&E),[2]; treatment group vs control group,"in the control group, the number of inflammatory cells was observed higher than that of the treatment group"
same,staining of enamel matrix,[2]; vs control group (dispersed and pale dyed),dyed dark red
same,calcification (Alizarin Red S staining),[3],promoted the calcification in a concentration-dependent manner
same,expression of Axin2 (Wnt signaling),tooth germ mesenchyme,reduced
same,expression of Bmp2,tooth germ mesenchyme,reduced
same,expression of Bmp4,tooth germ mesenchyme,reduced
same,expression of Bmp6,tooth germ mesenchyme,reduced
same,expression of Bmp7,tooth germ mesenchyme,reduced
same,expression of Lef1 (Wnt signaling),tooth germ mesenchyme,reduced
same,expression of beta-Catenin (Wnt signaling),tooth germ mesenchyme,reduced
same,cell morphology by electron microscope,[4],relatively long-shaped cells
same,expression of Bmp6,[5],increased
same,overall gene expression,[5],overall gene expression increased
same,"proliferation of human-derived dental pulp stem cells (cell viability, MTT)",[6]; 10 μM/ml,promoted the proliferation
same,"proliferation of human-derived dental pulp stem cells (cell viability, MTT)",[6]; 0.1 and 1 μM/ml,not different from the control
same,proliferation of human dental pulp stem cells during differentiation,"[6]; 1, 5 and 1.0 μM/ml, bone differentiation inducing medium",inhibited the proliferation
O=C(O)/C=C\C(=O)Nc1ccc(Oc2cccc(Oc3ccc(NC(=O)/C=C\C(=O)O)cc3)c2)cc1 [H2L5186303],bone differentiation (Alizarin Red S staining),"[3]; 0, 1, and 10 μM/ml, differentiation induced for 14 days",promoted bone differentiation
lysophosphatidic acid [LPA],calcification (Alizarin Red S staining),[3],did not undergo the calcification
